From PubChem BioAssay (NCI)
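Step 1: Grow cells in 96-well plates. Step 2: Expose to compound for 48 hours at 5 concentrations. Step 3: Interpolate endpoints linearly; if unreached, use highest concentration. At the TGI there is no net growth.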

Assays:
Assay in all cases: DTP human tumour cell line panel, 48 h
K-562 leukemia = tested on: K-562 leukemia
T-47D breast = tested on: T-47D breast
NCI-H226 lung = tested on: NCI-H226 lung
HCC-2998 colon = tested on: HCC-2998 colon
SW-620 colon = tested on: SW-620 colon
RPMI-8226 leukemia = tested on: RPMI-8226 leukemia
KM12 colon = tested on: KM12 colon
M14 melanoma = tested on: M14 melanoma
CCRF-CEM leukemia = tested on: CCRF-CEM leukemia
NCI-H23 lung = tested on: NCI-H23 lung
OVCAR-4 ovarian = tested on: OVCAR-4 ovarian
RXF 393 renal = tested on: RXF 393 renal
SF-295 CNS = tested on: SF-295 CNS
SK-OV-3 ovarian = tested on: SK-OV-3 ovarian
OVCAR-8 ovarian = tested on: OVCAR-8 ovarian
OVCAR-5 ovarian = tested on: OVCAR-5 ovarian
SF-539 CNS = tested on: SF-539 CNS
EKVX NSCLC = tested on: EKVX NSCLC
UO-31 renal = tested on: UO-31 renal
MOLT-4 leukemia = tested on: MOLT-4 leukemia
NCI-H522 lung = tested on: NCI-H522 lung
SK-MEL-28 melanoma = tested on: SK-MEL-28 melanoma
MDA-MB-231 breast = tested on: MDA-MB-231 breast
IGROV1 ovarian = tested on: IGROV1 ovarian
UACC-62 melanoma = tested on: UACC-62 melanoma
SK-MEL-2 melanoma = tested on: SK-MEL-2 melanoma
HCT-15 colon = tested on: HCT-15 colon
PC-3 prostate = tested on: PC-3 prostate
LOX IMVI melanoma = tested on: LOX IMVI melanoma
ACHN renal = tested on: ACHN renal
MDA-MB-435 = tested on: MDA-MB-435
HOP-62 NSCLC = tested on: HOP-62 NSCLC
UACC-257 melanoma = tested on: UACC-257 melanoma
U251 CNS = tested on: U251 CNS
HS 578T breast = tested on: HS 578T breast
A498 renal = tested on: A498 renal
OVCAR-3 ovarian = tested on: OVCAR-3 ovarian
HL-60(TB) leukemia = tested on: HL-60(TB) leukemia
HT29 colon = tested on: HT29 colon
MCF7 breast = tested on: MCF7 breast
DU-145 prostate = tested on: DU-145 prostate
CAKI-1 renal = tested on: CAKI-1 renal
HOP-92 NSCLC = tested on: HOP-92 NSCLC
NCI/ADR-RES ovarian = tested on: NCI/ADR-RES ovarian
A549 NSCLC = tested on: A549 NSCLC
TK-10 renal = tested on: TK-10 renal
SNB-75 CNS = tested on: SNB-75 CNS
BT-549 breast = tested on: BT-549 breast
HCT-116 colon = tested on: HCT-116 colon
SK-MEL-5 melanoma = tested on: SK-MEL-5 melanoma
786-0 renal = tested on: 786-0 renal
COLO 205 colon = tested on: COLO 205 colon
SN12C renal = tested on: SN12C renal
SNB-19 CNS = tested on: SNB-19 CNS
SF-268 CNS = tested on: SF-268 CNS

Measured: TGI

CC1=NN(c2nc(N)nc(CO)n2)C(C)(C)C1
> 100 µM: all assays above
